The subject of assay [1] is F-duplex-T (DNA, hairpin, Spacer18 (hexaethylene glycol) between 10 and 11) TATAGCTATATATAGCTATA
The experiment in a line: FRET melting. To be noted: 5 mM K+, 50 mM Li+; 5 mM lithium cacodylate, pH 7.4; compound 0.2 μM, DNA 0.2 μM; no increment above error.

Assay [2] concerns c-myc (DNA, G4) TGAGGGTGGGTAGGGTGGGTAA
The experiment in a line: fluorescent intercalator displacement. Conditions: 100 mM K+; 10 mM lithium cacodylate, pH 7.4; thiazole orange 0.5 μM displaced; DNA 0.25 μM.

Assay [3] deals with ht21 (DNA, G4) GGGTTAGGGTTAGGGTTAGGG
Description: fluorescent intercalator displacement. Conditions: 100 mM K+; 10 mM lithium cacodylate, pH 7.4; thiazole orange 0.5 μM displaced; DNA 0.25 μM; nearly 6-fold weaker than c-myc.

The test system of assay [4] is ds26 (DNA, duplex) CAATCGGATCGAATTCGATCCGATTG
The experiment in a line: fluorescent intercalator displacement. To be noted: 100 mM K+; 10 mM lithium cacodylate, pH 7.4; thiazole orange 0.75 μM displaced; DNA 0.25 μM; nearly 10-fold weaker than c-myc.

For the molecule `NCCCCCCCCCCN.[Cl-].[Cl-].[Pt+2].[Pt+2].c1ccc(-c2ccnc3c2ccc2c(-c4ccccc4)ccnc23)cc1.c1ccc(-c2ccnc3c2ccc2c(-c4ccccc4)ccnc23)cc1`, the binding result in assay [1] was “no”.

Turning to `NCCCCCCCCCN.[Cl-].[Cl-].[Pt+2].[Pt+2].c1ccc(-c2ccnc3c2ccc2c(-c4ccccc4)ccnc23)cc1.c1ccc(-c2ccnc3c2ccc2c(-c4ccccc4)ccnc23)cc1`, the binding entry in assay [1] is “no”. The DC50 in assay [2] was found to be 200 nM; in assay [3], 1170 nM; in assay [4] it was 1840 nM.

For the molecule `NCCCCCCCCN.[Cl-].[Cl-].[Pt+2].[Pt+2].c1ccc(-c2ccnc3c2ccc2c(-c4ccccc4)ccnc23)cc1.c1ccc(-c2ccnc3c2ccc2c(-c4ccccc4)ccnc23)cc1`, in assay [1], the binding result is listed as “no”.

Turning to `NCCCCCCCN.[Cl-].[Cl-].[Pt+2].[Pt+2].c1ccc(-c2ccnc3c2ccc2c(-c4ccccc4)ccnc23)cc1.c1ccc(-c2ccnc3c2ccc2c(-c4ccccc4)ccnc23)cc1`, the binding result in assay [1] is given as “no”.

The values above are taken from article PMC5768759 (2018).
